Laboratory results published in paper PMC10743905, “Design, Synthesis, and In Vitro and In Vivo Bioactivity Studies of Hydrazide–Hydrazones of 2,4-Dihydroxybenzoic Acid” (International Journal of Molecular Sciences, 2023).
Converted amounts (≈) assume the structure as drawn. Where two headings read alike, the source gives them in different places.

Legend:
[1] = system: Candida glabrata ATCC 90030; test: Broth microdilution MIC/MFC; format: cell-based; conditions: Nakaseomyces glabratus, ATCC90030, read-out: MIC
Description: (§1) In vitro antimicrobial activity assays - Methodology
(§2) The examined compounds 1 - 24 were screened in vitro for antibacterial and antifungal activities using the broth microdilution method according to procedure reported earlier by our research group and European Committee on Antimicrobial Susceptibility Testing (EUCAST) and Clinical and Laboratory Standards Institute (CLSI) guidelines against a panel of reference and clinical or saprophytic strains of microorganisms, in-cluding Gram-positive bacteria, Staphylococcus aureus ATCC 43300 (Methicillin Resistant S. aureus – MRSA), Staphylococcus aureus ATCC 29213 (Methicillin Susceptible S. aureus – MSSA), Staphylococcus epidermidis ATCC 12228, Enterococcus faecalis ATCC 29212, Micro-coccus luteus ATCC 10240, Bacillus subtilis ATCC 6633 and Bacillus cereus ATCC 10876), Gram-negative bacteria (Bordetella bronchiseptica ATCC 4617, Escherichia coli ATCC 25922, Klebsiella pneumoniae ATCC 13883, Proteus mirabilis ATCC 12453, Salmonella typhimurium ATCC 14028 and Pseudomonas aeruginosa ATCC 9027) and fungi belonging to yeasts (Can-dida albicans ATCC 10231, Candida albicans ATCC 2091, Candida parapsilosis ATCC 22019, Candida glabrata ATCC 90030 and Candida krusei ATCC 14243). The microorganisms be-longing to ATCC came from American Type Culture Collection, routinely used for the evaluation of antimicrobials. All the used microbial cultures were first subcultured on nu-trient agar or Sabouraud agar at 35°C for 18-24 h or 30°C for 24-48 h for bacteria and fungi, […]
(§3) The surface of Mueller-Hinton agar (for bacteria) and RPMI 1640 with MOPS (for fungi) were inoculated with the suspensions of bacterial or fungal species. Microbial suspensions were prepared in sterile saline with an optical density of McFarland standard scale 0.5.
(§4) Samples containing examined compounds were dissolved in dimethyl sulfoxide (DMSO).
(§5) Furthermore, bacterial and fungal suspensions were put onto Petri dishes with solid me-dia containing 2 mg/mL of the tested compounds followed incubation at 37°C for 24h and 30°C for 48h for bacteria and fungi, respectively. The inhibition of microbial growth was judged by comparison with a control culture prepared without any sample tested. Ciprof-loxacin, vancomycin, nitrofurantoin, cefuroxime, ampicillin or nystatin (Sigma) were used as a reference antibacterial or antifungal compounds, respectively.
(§6) Subsequently, the MIC (Minimal Inhibitory Concentration) of the compounds was ex-amined by the microdilution broth method, using their two-fold dilutions in Mueller- […]
(§7) Hinton broth or (for bacteria) and RPMI 1640 broth with MOPS (for fungi) prepared in 96-well polystyrene plates. Final concentrations of the compounds ranged from 1000 to 0.488 µg/ml. Microbial suspensions were prepared in 0.85% NaCl with an optical density of 0.5 McFarland standard. Next each bacterial or fungal suspension was added per each well containing broth and various concentrations of the examined compounds. After incuba-

[2] = system: Candida albicans ATCC 10231; test: Broth microdilution MIC/MFC; format: cell-based; conditions: for MIC: ATCC10231, read-out: MIC; for MFC: ATCC10231, read-out: MFC
Description: as §1, §2, §3, §4, §5, §6, §7

[3] = system: Candida krusei ATCC 14243; test: Broth microdilution MIC/MFC; format: cell-based; conditions: Pichia kudriavzevii, ATCC14243, read-out: MIC
Description: as §1, §2, §3, §4, §5, §6, §7

[4] = system: Candida parapsilosis ATCC 22019; test: Broth microdilution MIC/MFC; format: cell-based; conditions: for MIC: ATCC22019, read-out: MIC
Description: as §1, §2, §3, §4, §5, §6, §7

[5] = system: Candida albicans ATCC 2091; test: Broth microdilution MIC/MFC; format: cell-based; conditions: for MIC: ATCC2091, read-out: MIC
Description: as §1, §2, §3, §4, §5, §6, §7

[6] = system: Staphylococcus epidermidis ATCC 12228; test: Broth microdilution MIC/MBC; format: cell-based; conditions: for MBC: ATCC12228; for MIC: ATCC12228, read-out: MIC
Description: as §1
as §2, with “antimicrobials.” for “antimicrobials. All the used microbial cultures were first subcultured on nu-trient agar or Sabouraud agar at 35°C for 18-24 h or 30°C for 24-48 h for bacteria and fungi,”
(§8) Samples containing examined compounds were dissolved in dimethyl sulfoxide (DMSO). […]
as §6, §7

[7] = system: Micrococcus luteus ATCC 10240; test: Broth microdilution MIC/MBC; format: cell-based; conditions: for MBC: ATCC10240; for MIC: ATCC10240, read-out: MIC
Description: as §1
as §2, with “antimicrobials.” for “antimicrobials. All the used microbial cultures were first subcultured on nu-trient agar or Sabouraud agar at 35°C for 18-24 h or 30°C for 24-48 h for bacteria and fungi,”
as §8, §6, §7

[8] = system: Pseudomonas aeruginosa ATCC 9027; test: Broth microdilution MIC/MBC; format: cell-based; conditions: ATCC9027
Description: as §1
as §2, with “antimicrobials.” for “antimicrobials. All the used microbial cultures were first subcultured on nu-trient agar or Sabouraud agar at 35°C for 18-24 h or 30°C for 24-48 h for bacteria and fungi,”
as §8, §6, §7

[9] = system: Salmonella typhimurium ATCC 14028; test: Broth microdilution MIC/MBC; format: cell-based; conditions: Salmonella enterica
Description: as §1
as §2, with “antimicrobials.” for “antimicrobials. All the used microbial cultures were first subcultured on nu-trient agar or Sabouraud agar at 35°C for 18-24 h or 30°C for 24-48 h for bacteria and fungi,”
as §8, §6, §7

[10] = system: Proteus mirabilis ATCC 12453; test: Broth microdilution MIC/MBC; format: cell-based; conditions: ATCC12453
Description: as §1
as §2, with “antimicrobials.” for “antimicrobials. All the used microbial cultures were first subcultured on nu-trient agar or Sabouraud agar at 35°C for 18-24 h or 30°C for 24-48 h for bacteria and fungi,”
as §8, §6, §7

[11] = system: Staphylococcus aureus ATCC 29213; test: Broth microdilution MIC/MBC; format: cell-based; conditions: for MBC / MIC: ATCC29213
Description: as §1
as §2, with “antimicrobials.” for “antimicrobials. All the used microbial cultures were first subcultured on nu-trient agar or Sabouraud agar at 35°C for 18-24 h or 30°C for 24-48 h for bacteria and fungi,”
as §8, §6, §7

[12] = system: Staphylococcus aureus ATCC 43300; test: Broth microdilution MIC/MBC; format: cell-based; conditions: Staphylococcus aureus ATCC 43300 (MRSA)
Description: as §1
as §2, with “antimicrobials.” for “antimicrobials. All the used microbial cultures were first subcultured on nu-trient agar or Sabouraud agar at 35°C for 18-24 h or 30°C for 24-48 h for bacteria and fungi,”
as §8, §6, §7

[13] = system: Bordetella bronchiseptica ATCC 4617; test: Broth microdilution MIC/MBC; format: cell-based
Description: as §1, §2, §3, §4, §5, §6, §7

[14] = system: Escherichia coli ATCC 25922; test: Broth microdilution MIC/MBC; format: cell-based; conditions: ATCC25922
Description: as §1, §2, §3, §4, §5, §6, §7

[15] = system: Enterococcus faecalis ATCC 29212; test: Broth microdilution MIC/MBC; format: cell-based; conditions: for MBC: ATCC29212, read-out: MBC; for MIC: ATCC29212, read-out: MIC
Description: as §1, §2, §3, §4, §5, §6, §7

[16] = system: Klebsiella pneumoniae ATCC 13883; test: Broth microdilution MIC/MBC; format: cell-based; conditions: ATCC13883
Description: as §1, §2, §3, §4, §5, §6, §7

[17] = system: Bacillus cereus ATCC 10876; test: Broth microdilution MIC/MBC; format: cell-based; conditions: for MBC: ATCC10876
Description: as §1, §2, §3, §4, §5, §6, §7

[18] = system: Bacillus subtilis ATCC 6633; test: Broth microdilution MIC/MBC; format: cell-based; conditions: for MBC: ATCC6633; for MIC: ATCC6633, read-out: MIC
Description: Detailed procedures are presented in the Supplementary Materials. […]
as §1, §2, §3, §4, §5, §6, §7

Gram-negative bacteria = test: Broth microdilution, summary over the Gram-negative panel; format: cell-based
Description: as §1, §2, §3, §4, §5, §6, §7

Row | SMILES | MIC [1] [µg/mL] | MIC [2] [µg/mL] | MIC [3] [µg/mL] | MIC ([4]; Lodderomyces parapsilosis) [µg/mL] | MIC [5] [µg/mL] | MIC [6] [µg/mL] | MBC/MIC [7] | MBC [7] [µg/mL] | MIC [7] [µg/mL] | MIC [8] [µg/mL] | MIC [9] [µg/mL] | MIC [10] [µg/mL] | MIC [11] [µg/mL] | MIC [12] [µg/mL] | melting point [°C] | MIC ([13]; ATCC4617) [µg/mL] | MIC [14] [µg/mL] | MIC [15] [µg/mL] | MIC [16] [µg/mL] | MIC ([17]; ATCC10876, read-out: MIC) [µg/mL] | also measured
1 | COc1ccc(/C=N/NC(=O)c2ccc(O)cc2O)cc1Cl [Compound 9, N-[(3-chloro-4-methoxyphenyl)methylidene]-2,4-dihydroxybenzohydrazide] | > 1000 | > 1000 | > 1000 | > 1000 | > 1000 | 62.5 (≈ 195 µM) | 4 | 500 (≈ 1560 µM) | 125 (≈ 390 µM) | > 1000 | > 1000 | > 1000 | 31.2 (≈ 97.4 µM) | 15.6 (≈ 48.7 µM) | 256 | > 1000 | > 1000 | 125 (≈ 390 µM) | > 1000 | 15.6 (≈ 48.7 µM) | MBC/MIC [6]: 2; MBC [6]: 125 µg/mL (≈ 390 µM); MBC/MIC [11]: 1; MBC [11]: 31.2 µg/mL (≈ 97.4 µM); MBC [12]: 62.5 µg/mL (≈ 195 µM); MBC/MIC [12]: 4; MBC/MIC [15]: 4; MBC [15]: 500 µg/mL (≈ 1560 µM); MBC/MIC [17]: 4; MIC [17]: 15.62 µg/mL (≈ 48.7 µM); MBC [17]: 62.5 µg/mL (≈ 195 µM); MBC/MIC [18]: 4; MBC [18]: 500 µg/mL (≈ 1560 µM); MIC [18]: 125 µg/mL (≈ 390 µM)
2 | CCOc1cc(/C=N/NC(=O)c2ccc(O)cc2O)ccc1OC [Compound 14, N-[(3-ethoxy-4-methoxyphenyl)methylidene]-2,4-dihydroxybenzohydrazide] | > 1000 | 500 (≈ 1510 µM) | > 1000 | > 1000 | > 1000 | > 1000 | > 8 | > 1000 | 125 (≈ 378 µM) | > 1000 | > 1000 | > 1000 | > 1000 | > 1000 | 230 | 1000 (≈ 3030 µM) | > 1000 | > 1000 | > 1000 | 500 (≈ 1510 µM) | MFC/MIC [2]: > 2; MFC [2]: > 1000 µg/mL; MBC/MIC [13]: 1; MBC ([13]; ATCC4617): 1000 µg/mL (≈ 3030 µM); MBC/MIC [17]: > 2; MBC [17]: > 1000 µg/mL; MIC [18]: > 1000 µg/mL; MBC (Gram-negative bacteria): > 1000 µg/mL; MIC (Gram-negative bacteria): 500 to 1000 µg/mL (≈ 1510 to 3030 µM)
3 | COc1ccc(/C=N/NC(=O)c2ccc(O)cc2O)c(Br)c1O [Compound 15, N-[(2-bromo-3-hydroxy-4-methoxyphenyl)methylidene]-2,4-dihydroxybenzohydrazide] | > 1000 | > 1000 | > 1000 | 1000 (≈ 2620 µM) | > 1000 | 1000 (≈ 2620 µM) | > 2 | > 1000 | 500 (≈ 1310 µM) | > 1000 | > 1000 | > 1000 | > 1000 | > 1000 | 244 | > 1000 | > 1000 | > 1000 | > 1000 | > 1000 | MFC/MIC [4]: > 1; MFC ([4]; Lodderomyces parapsilosis, ATCC22019, read-out: MFC): > 1000 µg/mL; MBC/MIC [6]: > 1; MBC [6]: > 1000 µg/mL; MIC [18]: > 1000 µg/mL
4 | COc1cc(/C=N/NC(=O)c2ccc(O)cc2O)cc(I)c1O [Compound 16, 2,4-dihydroxy-N-[(4-hydroxy-3-iodo-5-methoxyphenyl)methylidene]benzohydrazide] | > 1000 | 1000 (≈ 2340 µM) | > 1000 | > 1000 | 250 (≈ 584 µM) | 1000 (≈ 2340 µM) | > 4 | > 1000 | 250 (≈ 584 µM) | > 1000 | > 1000 | > 1000 | 1000 (≈ 2340 µM) | > 1000 | 255 | > 1000 | > 1000 | 1000 (≈ 2340 µM) | > 1000 | 1000 (≈ 2340 µM) | MFC/MIC [2]: > 1; MFC [2]: > 1000 µg/mL; MFC/MIC [5]: > 4; MFC ([5]; ATCC2091, read-out: MFC): > 1000 µg/mL; MBC/MIC [6]: > 1; MBC [6]: > 1000 µg/mL; MBC/MIC [11]: > 1; MBC [11]: > 1000 µg/mL; MBC/MIC [15]: > 1; MBC [15]: > 1000 µg/mL; MBC/MIC [17]: > 1; MBC [17]: > 1000 µg/mL; MBC/MIC [18]: > 4; MBC [18]: > 1000 µg/mL; MIC [18]: 250 µg/mL (≈ 584 µM)
